From ChEMBL document CHEMBL3862012, “Methylene versus carbonyl bridge in the structure of new tubulin polymerization inhibitors with tricyclic A-rings” (Bioorg Med Chem, 2016)

Experiments:
Assay type in all cases: functional
[1] = Cytotoxicity against human K562 cells assessed as growth inhibition at 10 uM after 48 hrs by SRB assay relative to control; conditions: K562, 48 h, read-out: GI
[2] = Cytotoxicity against human HCC2998 cells assessed as growth inhibition at 10 uM after 48 hrs by SRB assay relative to control; conditions: HCC 2998, 48 h, read-out: GI
[3] = Cytotoxicity against human SK-MEL-28 cells assessed as growth inhibition at 10 uM after 48 hrs by SRB assay relative to control; conditions: SK-MEL-28, 48 h, read-out: GI
[4] = Cytotoxicity against human UACC62 cells assessed as growth inhibition at 10 uM after 48 hrs by SRB assay relative to control; conditions: UACC-62, 48 h, read-out: GI
[5] = Cytotoxicity against human OVCAR8 cells assessed as growth inhibition at 10 uM after 48 hrs by SRB assay relative to control; conditions: OVCAR-8, 48 h, read-out: GI
[6] = Cytotoxicity against human SN12C cells assessed as growth inhibition at 10 uM after 48 hrs by SRB assay relative to control; conditions: read-out: GI
[7] = Cytotoxicity against human CCRF-CEM cells assessed as growth inhibition after 48 hrs by SRB assay
[8] = Cytotoxicity against human HL-60(TB) cells assessed as growth inhibition after 48 hrs by SRB assay; conditions: HL-60, 48 h
[9] = Cytotoxicity against human MOLT4 cells assessed as growth inhibition after 48 hrs by SRB assay; conditions: MOLT-4, 48 h
[10] = Cytotoxicity against human RPMI8226 cells assessed as growth inhibition after 48 hrs by SRB assay; conditions: RPMI-8226, 48 h
[11] = Cytotoxicity against human A549 cells assessed as growth inhibition after 48 hrs by SRB assay; conditions: A549, 48 h
[12] = Cytotoxicity against human EKVX cells assessed as growth inhibition after 48 hrs by SRB assay
[13] = Cytotoxicity against human HOP62 cells assessed as growth inhibition after 48 hrs by SRB assay; conditions: HOP-62, 48 h
[14] = Cytotoxicity against human HOP92 cells assessed as growth inhibition after 48 hrs by SRB assay; conditions: HOP-92, 48 h
[15] = Cytotoxicity against human NCI-H23 cells assessed as growth inhibition after 48 hrs by SRB assay; conditions: NCI-H23, 48 h
[16] = Cytotoxicity against human HCT116 cells assessed as growth inhibition after 48 hrs by SRB assay; conditions: HCT-116, 48 h
[17] = Cytotoxicity against human HT-29 cells assessed as growth inhibition after 48 hrs by SRB assay; conditions: HT-29, 48 h
[18] = Cytotoxicity against human SF295 cells assessed as growth inhibition after 48 hrs by SRB assay; conditions: SF-295, 48 h
[19] = Cytotoxicity against human SF539 cells assessed as growth inhibition after 48 hrs by SRB assay; conditions: SF-539, 48 h
[20] = Cytotoxicity against human SNB75 cells assessed as growth inhibition after 48 hrs by SRB assay; conditions: SNB-75, 48 h
[21] = Cytotoxicity against human U251 cells assessed as growth inhibition after 48 hrs by SRB assay; conditions: U-251, 48 h
[22] = Cytotoxicity against human MDA-MB-435 cells assessed as growth inhibition after 48 hrs by SRB assay; conditions: MDA-MB-435, 48 h
[23] = Cytotoxicity against human UACC62 cells assessed as growth inhibition after 48 hrs by SRB assay; conditions: UACC-62, 48 h
[24] = Cytotoxicity against human OVCAR4 cells assessed as growth inhibition after 48 hrs by SRB assay; conditions: OVCAR-4, 48 h
[25] = Cytotoxicity against human OVCAR8 cells assessed as growth inhibition after 48 hrs by SRB assay; conditions: OVCAR-8, 48 h
[26] = Cytotoxicity against human A498 cells assessed as growth inhibition after 48 hrs by SRB assay; conditions: A498, 48 h
[27] = Cytotoxicity against human Caki1 cells assessed as growth inhibition after 48 hrs by SRB assay; conditions: CAKI-1, 48 h
[28] = Cytotoxicity against human UO31 cells assessed as growth inhibition after 48 hrs by SRB assay; conditions: UO-31, 48 h
[29] = Cytotoxicity against human 786-0 cells assessed as growth inhibition after 48 hrs by SRB assay; conditions: 786-0, 48 h
[30] = Cytotoxicity against human PC3 cells assessed as growth inhibition after 48 hrs by SRB assay; conditions: PC-3, 48 h
[31] = Cytotoxicity against human MCF7 cells assessed as growth inhibition after 48 hrs by SRB assay; conditions: MCF7, 48 h
[32] = Cytotoxicity against human MDA-MB-468 cells assessed as growth inhibition after 48 hrs by SRB assay; conditions: MDA-MB-468, 48 h
[33] = Cytotoxicity against human MALME-3M cells assessed as growth inhibition after 48 hrs by SRB assay

COc1ccc(CN2c3ccccc3Sc3ccccc32)cc1F
inhibition of growth at 10 µM [1]: 89%
inhibition of growth at 10 µM [2]: 82%
inhibition of growth at 10 µM [3]: 43%
inhibition of growth at 10 µM [4]: 72%
inhibition of growth at 10 µM [5]: 76%
inhibition of growth at 10 µM [6]: 55%
GI50 [7]: 0.428 µM
GI50 [8]: 0.262 µM
GI50 [9]: 0.468 µM
GI50 [10]: 0.482 µM
GI50 [11]: 0.757 µM
GI50 [12]: 0.612 µM
GI50 [13]: 0.506 µM
GI50 [14]: 0.806 µM
GI50 [15]: 0.764 µM
GI50 [16]: 0.377 µM
GI50 [17]: 0.331 µM
GI50 [18]: 0.333 µM
GI50 [19]: 0.33 µM
GI50 [20]: 0.204 µM
GI50 [21]: 0.529 µM
GI50 [22]: 0.189 µM
GI50 [23]: 0.499 µM
GI50 [24]: 7.25 µM
GI50 [25]: 0.663 µM
GI50 [26]: 0.283 µM
GI50 [27]: 0.386 µM
GI50 [28]: 0.916 µM
GI50 [29]: 0.579 µM
GI50 [30]: 0.485 µM
GI50 [31]: 0.365 µM
GI50 [32]: 0.309 µM

COc1ccc(CN2c3ccccc3Oc3ccccc32)cc1O
inhibition of growth at 10 µM [5]: 64%

COc1ccc(CN2c3ccccc3Sc3ccccc32)c(C(F)(F)F)c1
inhibition of growth at 10 µM [5]: 69%
GI50 [7]: 0.454 µM
GI50 [8]: 0.412 µM
GI50 [9]: 0.288 µM
GI50 [10]: 3 µM
GI50 [11]: 0.807 µM
GI50 [12]: 1.2 µM
GI50 [13]: 0.604 µM
GI50 [14]: 0.227 µM
GI50 [15]: 1.03 µM
GI50 [16]: 0.419 µM
GI50 [17]: 0.681 µM
GI50 [18]: 0.32 µM
GI50 [19]: 0.452 µM
GI50 [20]: 0.241 µM
GI50 [21]: 0.431 µM
GI50 [22]: 0.396 µM
GI50 [23]: 0.917 µM
GI50 [33]: 21 µM
GI50 [24]: 2.16 µM
GI50 [25]: 2.22 µM
GI50 [26]: 0.372 µM
GI50 [27]: 1.53 µM
GI50 [28]: 3.98 µM
GI50 [29]: 9.05 µM
GI50 [30]: 0.546 µM
GI50 [31]: 0.349 µM
GI50 [32]: 0.275 µM

COc1ccc(CN2c3ccccc3Sc3ccccc32)c(F)c1
inhibition of growth at 10 µM [1]: 91%
inhibition of growth at 10 µM [2]: 38%
inhibition of growth at 10 µM [3]: 47%
inhibition of growth at 10 µM [4]: 67%
inhibition of growth at 10 µM [6]: 53%
GI50 [16]: 0.04 µM
GI50 [17]: 0.035 µM
GI50 [22]: 0.025 µM
GI50 [31]: 0.033 µM

COc1ccc(CN2c3ccccc3Oc3ccccc32)cc1F
inhibition of growth at 10 µM [5]: 35%

COc1ccc(CN2c3ccccc3Sc3ccccc32)cc1O
inhibition of growth at 10 µM [5]: 78%
GI50 [7]: 0.411 µM
GI50 [8]: 0.257 µM
GI50 [9]: 0.642 µM
GI50 [10]: 0.42 µM
GI50 [11]: 0.471 µM
GI50 [12]: 0.378 µM
GI50 [13]: 0.384 µM
GI50 [14]: 0.502 µM
GI50 [15]: 0.364 µM
GI50 [16]: 0.386 µM
GI50 [17]: 0.724 µM
GI50 [18]: 0.225 µM
GI50 [19]: 0.27 µM
GI50 [20]: 0.18 µM
GI50 [21]: 0.427 µM
GI50 [22]: 0.234 µM
GI50 [23]: 0.682 µM
GI50 [33]: 12.2 µM
GI50 [24]: 0.726 µM
GI50 [25]: 0.508 µM
GI50 [26]: 2.71 µM
GI50 [27]: 0.472 µM
GI50 [28]: 0.752 µM
GI50 [29]: 0.838 µM
GI50 [30]: 0.503 µM
GI50 [31]: 0.355 µM
GI50 [32]: 0.531 µM

COc1ccc(CN2c3ccccc3CCc3ccccc32)cc1F
inhibition of growth at 10 µM [1]: 94%
inhibition of growth at 10 µM [2]: 69%
inhibition of growth at 10 µM [3]: 49%
inhibition of growth at 10 µM [4]: 75%
inhibition of growth at 10 µM [6]: 61%
GI50 [7]: 0.515 µM
GI50 [8]: 0.241 µM
GI50 [9]: 0.554 µM
GI50 [10]: 0.644 µM
GI50 [11]: 0.732 µM
GI50 [12]: 1.55 µM
GI50 [13]: 0.529 µM
GI50 [14]: 0.587 µM
GI50 [15]: 0.672 µM
GI50 [16]: 0.413 µM
GI50 [17]: 0.319 µM
GI50 [18]: 0.333 µM
GI50 [19]: 0.287 µM
GI50 [20]: 0.277 µM
GI50 [21]: 0.496 µM
GI50 [22]: 0.187 µM
GI50 [23]: 0.804 µM
GI50 [24]: 0.868 µM
GI50 [25]: 0.88 µM
GI50 [26]: 0.339 µM
GI50 [27]: 0.549 µM
GI50 [28]: 0.814 µM
GI50 [29]: 0.572 µM
GI50 [30]: 0.489 µM
GI50 [31]: 0.352 µM
GI50 [32]: 0.399 µM
